# Source: patent US11040056B2, “Benzimidazoles that enhance the activity of oligonucleotides” (The University of North Carolina at Chapel Hill, priority 2018, dated 2021)
# Assays:
# HeLaLuc705 cells = test: SSO-mediated luciferase induction assay; assay type: cell-based
# Protocol: FIG. 1B-1E. Effects with SSOs. FIG. 1B Structure of UNC2383. […] The cells were then rinsed and incubation continued for an additional 4 h in DMEM+10% FBS. Cells were rinsed twice in PBS and luciferase activity (RLU) and cell protein determined. The larger round symbol indicates the MM oligonucleotide. Means+/−SE. N=3. […] The cells were further incubated and then luciferase and protein determined. The total time of incubation in each case was 6 h. […] Means+/−SE. N=3.
# FIG. 3. Effect and Cytotoxicity of Analogs. The effect of selected UNC2383 analogs on luciferase induction by SSO623 was measured as described in Methods and in the legend of FIG. 1B-1E. Cytotoxicity was measured using the Alamar Blue method as in FIG. 1E. MM10 is the effect of 10 uM compound in the presence of a mismatched oligonucleotide. Means and SE. N=3.
# HeLaLuc705 cells are stably transfected with a firefly luciferase reporter whose coding sequence is interrupted by an abnormal intron. […] NIH-3T3-MDR cells are stably transfected with a human MDR1 cDNA coding for the P-glycoprotein (Pgp). We have described the maintenance and use of these cell lines elsewhere. (18, 20)
# SSO-mediated luciferase induction assays were conducted as previously described. (18) In short, HeLaLuc705 cells in 24 well culture plates were preincubated with SSO623 followed by brief treatment with the small molecule; at intervals thereafter, luciferase activity and protein content were determined. […] (30)
# [1] = system: lysosomes of HeLa Luc 705 cells; test: Lysotracker Red accumulation assay; assay type: cell-based; settings: 2 μM
# Protocol: FIG. 9A-9D. Effects on lysosomes. FIG. 9A: Lysotracker uptake. Accumulation of Lysotracker Red in HeLa Luc 705 cells was measured after a 2 h exposure of cells to the indicated concentrations of various analogs. The lysosomotropic compound chloroquine was included as a positive control. Means of triplicate determinations are shown. The color-coded numbers refer to the fold increase in luciferase induction attained by the concentration of analog associated with the adjacent symbol on the graph. The numbers are taken from the data of FIG. 1C for UNC2383 and FIG. 4 for UNC4267, UNC4258, and UNC4428. FIG. 9B: LT50 vs TC50. […] Nonlinear regression was calculated using Prism software. The R^2 value for the plot is 0.91. FIG. 9C: 2383 vs chloroquine; luciferase induction. HeLa Luc705 cells were exposed to SSO623 and then treated with various concentrations of UNC2383 or chloroquine for 2 h and then tested for luciferase induction following the methods described in FIG. 1B-FIG. 1E. […]
# The integrity of lysosomes was evaluated using the fluorescent probe Lysotracker Red (Thermo Fisher). […] Cells were thoroughly rinsed in PBS, lysed in 0.2% TX 100, and centrifuged briefly at 4000 rpm, and 100 uL of the supernate was distributed to black 96 well plates for analysis of fluorescence using a FLUOstar Omega 96 well microplate reader.
# [2] = cells preloaded with 100 nM SSO623, FIG. 1D
smiles,measurement,setting,value
O=C(Nc1nc2ccccc2n1CCN1CCCC1)c1cc2cc(Cl)ccc2o1 [UNC2383],effectiveness in cells compared to Retro-1,HeLaLuc705 cells,far more effective
same,effectiveness in cells compared to UNC10217938,HeLaLuc705 cells,approximately equivalent
same,enhancement of SSO actions,HeLaLuc705 cells; 2 μM,quite strongly enhanced
same,"SSO-mediated luciferase induction, comparison with chloroquine","HeLaLuc705 cells; FIG. 9C, 2 h, chloroquine also 16 h",very active
same,onset of action: effects first observed,HeLaLuc705 cells; [2],≤ 30 min
same,onset of action: reaching a plateau,HeLaLuc705 cells; [2],≤ 120 min
same,EC50,HeLaLuc705 cells; luciferase induction by SSO623,2000 nM
same,luciferase induction after mismatched oligonucleotide,HeLaLuc705 cells; mismatched oligonucleotide followed by compound,no effect
same,effect on lysotracker accumulation,[1],little effect
